Test results as given in patent publication US8394434B2, “SCF extract containing cardiac glycoside” (Phoenix Biotechnology, Inc., priority 2005, dated 2013).

Experiments:
Human melanoma BRO cells = experiment: Cytotoxicity comparison, crystal violet staining (Example 10); assay type: cell-based; details: presented as μM oleandrin concentration in the extract, 72 hr incubation
Experimental: (§1) The extracts also differ in their relative performance as determined by efficacy against several tumor cell lines (Example 10). Oleandrin-containing samples were prepared to contain the same amount of oleandrin although the concentration of oleandrin in each sample varied due to the differences in the concentration of in the extracts. The data obtained are summarized in the table below and in FIGS. 4 and 5.
(§2) The cytotoxic potential of both extracts are compared directly with that of oleandrin. The samples contained the same amounts of oleandrin even though their concentration of oleandrin differed due to the concentration of oleandrin present in the extracts.
(§3) BRO (human melanoma) and Panc-1 (human pancreatic cancer) cells (8×10^3/well) were plated in a 96 well plate and allowed to attach overnight. Drug or extracts were then added to the cells. After 72 hr of incubation, relative cell proliferation (relative to control untreated cells) was assessed by crystal violet staining method.

[1] = system: Human pancreatic cancer PANC-1 cells; experiment: as above; assay type: cell-based; details: presented as μM oleandrin concentration in the extract, 72 hr incubation
Experimental: as §1, §2, §3

PANC-1 cells = experiment: Cell cycle analysis by flow cytometry; assay type: cell-based, human; details: 25 nM oleandrin or extract equivalent to 25 nM oleandrin, 24 hrs
Experimental: The effect of oleandrin, the hot-water and SCF extract upon cell cycle changes of PANC-1 cells treated therewith was evaluated over a 24-hour period. Panc-1 cells were treated with 25 nM of oleandrin alone or the amount of hot water extract or supercritical CO2 extract of oleander which was equivalent to 25 nM of oleandrin for 24 hrs. Cell cycle analysis was carried out by flow cytometry. Cell division consists of two consecutive processes, mainly characterized by DNA replication and then segregation of replicated chromosomes into two separate cells. Replication of DNA occurs in a specific part of the interphase called S phase. S phase is preceded by a gap called G1 during which the cell is preparing for DNA synthesis. This is […] then followed by a gap called G2 during which the cell prepares for mitosis. Then this is followed with the mitosis phase, or M phase. G1, S, G2 and M phases are the traditional subdivisions of the standard cell cycle. Cells which are in a G2/M block such as that induced by the supercritical CO2 extract cannot undergo division.
The data are expressed as the relative percentage of cells in a given phase of the cell cycle.

[2] = system: Akt (pAkt) in Panc-1 cells; experiment: Phosphorylation of Akt, gel electropherogram (FIG. 3); assay type: cell-based, human
From the text: (§4) FIG. 3 depicts a photograph of the relevant bands of a gel electropherogram obtained as part of an assay comparing the activity of oleandrin, hot-water extract and the SCF extract of the invention toward inhibition of phosphoryation (active form) of Akt and augmentation of (phosphorylation) of Erk.
(§5) Phosphorylation of the serine/threonine kinase known as Akt provides tumor cells with enhanced survival capability. Increased Akt activity promotes survival of tumor cells that would normally undergo death by apoptosis. In addition, pAkt is involved in cell proliferation, angiogenesis, genome instability and cell invasion and migration (Yoeli-Lerner M and Toker A. Akt/PKB Signaling in Cancer. Cell Cycle 5:603-605, 2006). All of these responses contribute to initiation and progression. Further evidence of the importance of Akt signaling in cancer comes from studies which have detected over-expression and hyper-activation (through phosphorylation) of Akt in a wide range of human tumors, and this is often linked with poor prognosis. The relative activity of the hot-water and SCF extract on critical cell signaling proteins in human pancreatic cancer (Panc-1) cells were also compared. […] The relative ability of the supercritical CO2 extract to inhibit pAkt expression is much greater than that of oleandrin or the hot water extract of Nerium oleander. […]

[3] = system: ERK (pERK) in Panc-1 cells; experiment: Expression of pERK, gel electropherogram (FIG. 3); assay type: cell-based, human
From the text: as §4, §5

## CO[C@H]1C[C@H](O[C@H]2CC[C@@]3(C)[C@H](CC[C@@H]4[C@@H]3CC[C@]3(C)[C@@H](C5=CC(=O)OC5)[C@@H](OC(C)=O)C[C@]43O)C2)O[C@@H](C)[C@@H]1O [Oleandrin, oleandrin]
Human melanoma BRO cells
  IC50: 0.017 µM
[1]
  IC50: 0.01 µM
PANC-1 cells
  G1 phase, relative percentage of cells: 30.5%
  G2/M phase, relative percentage of cells: 26.2%
  S phase, relative percentage of cells: 43.3%
[2]
  inhibition of PI3 Kinase resulting in reduction of phosphorylation of Akt: reduction of phosphorylation of Akt
[3]
  expression of pERK: dramatically increased
